According to ChEMBL document CHEMBL3046380, “In Vitro and In Vivo Characterization of Alpha-1A Selective Agonists and Their Utility for Stress Incontience” (Med Chem Res, 2004):
Calls of active or inactive are those of the source. The rule behind the calls is not given here.

Tests used:
[1] = molecular target: T1, Alpha-1B adrenergic receptor (Rattus norvegicus) (UniProt P15823); test: (§1) Agonist activity at alpha1B adrenoreceptor in Rattus norvegicus (rat) spleen
T1 sequence (whole entry): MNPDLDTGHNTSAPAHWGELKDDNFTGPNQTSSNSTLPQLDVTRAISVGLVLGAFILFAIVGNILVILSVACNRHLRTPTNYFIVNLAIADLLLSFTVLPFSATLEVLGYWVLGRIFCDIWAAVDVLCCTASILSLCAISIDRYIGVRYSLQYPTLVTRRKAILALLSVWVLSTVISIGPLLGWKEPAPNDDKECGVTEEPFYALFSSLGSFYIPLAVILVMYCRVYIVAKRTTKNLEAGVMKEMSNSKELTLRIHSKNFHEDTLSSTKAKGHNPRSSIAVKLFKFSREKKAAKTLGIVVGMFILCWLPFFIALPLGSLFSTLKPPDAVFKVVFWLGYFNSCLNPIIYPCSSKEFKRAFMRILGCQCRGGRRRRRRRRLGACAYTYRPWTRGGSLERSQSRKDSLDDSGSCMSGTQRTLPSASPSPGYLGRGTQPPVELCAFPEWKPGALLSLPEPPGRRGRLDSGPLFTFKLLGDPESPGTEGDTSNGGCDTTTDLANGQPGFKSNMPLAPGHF

[2] = molecular target: T2, Alpha-1A adrenergic receptor (Oryctolagus cuniculus) (UniProt O02824); test: (§2) Agonist activity at alpha1A adrenoreceptor in Oryctolagus cuniculus (rabbit) urethra
T2 sequence (whole entry): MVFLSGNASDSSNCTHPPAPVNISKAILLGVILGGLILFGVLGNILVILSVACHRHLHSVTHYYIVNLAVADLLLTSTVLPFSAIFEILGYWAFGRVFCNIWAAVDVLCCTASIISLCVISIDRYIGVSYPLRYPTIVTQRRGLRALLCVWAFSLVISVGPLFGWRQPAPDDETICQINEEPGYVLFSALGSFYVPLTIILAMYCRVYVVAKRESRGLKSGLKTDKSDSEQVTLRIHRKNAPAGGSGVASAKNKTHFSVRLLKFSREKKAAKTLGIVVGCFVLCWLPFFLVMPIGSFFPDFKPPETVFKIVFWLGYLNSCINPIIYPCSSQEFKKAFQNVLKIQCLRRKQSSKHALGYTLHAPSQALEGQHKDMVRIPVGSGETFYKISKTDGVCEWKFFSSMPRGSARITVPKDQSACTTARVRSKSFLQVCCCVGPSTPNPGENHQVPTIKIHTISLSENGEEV

[3] = molecular target: T3, Alpha-1B adrenergic receptor (Rattus norvegicus, UniProt P15823); test: as §1
T3 sequence (P15823 whole entry): T1 sequence (whole entry)

[4] = molecular target: T4, Alpha-1A adrenergic receptor (Oryctolagus cuniculus, UniProt O02824); test: as §2
T4 sequence (O02824 whole entry): T2 sequence (whole entry)

[5] = molecular target: T5, Alpha-1A adrenergic receptor (Rattus norvegicus, UniProt P43140); test: Binding affinity to alpha1A adrenoreceptor in Rattus norvegicus (rat) submaxillary gland by radioligand displacement assay
T5 sequence (P43140 whole entry): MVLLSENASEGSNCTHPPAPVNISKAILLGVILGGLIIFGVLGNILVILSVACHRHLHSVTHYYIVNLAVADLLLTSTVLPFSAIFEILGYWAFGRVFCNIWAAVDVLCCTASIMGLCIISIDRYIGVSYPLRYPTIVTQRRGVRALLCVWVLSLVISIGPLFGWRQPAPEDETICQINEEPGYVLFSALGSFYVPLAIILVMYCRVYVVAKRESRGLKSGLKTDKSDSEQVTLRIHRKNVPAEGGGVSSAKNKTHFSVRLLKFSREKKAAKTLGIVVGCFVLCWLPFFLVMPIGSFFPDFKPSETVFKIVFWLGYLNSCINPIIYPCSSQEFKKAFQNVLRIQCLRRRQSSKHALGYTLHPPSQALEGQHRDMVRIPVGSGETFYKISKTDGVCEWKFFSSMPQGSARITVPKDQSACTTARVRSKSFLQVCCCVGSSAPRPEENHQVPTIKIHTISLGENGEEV

Canis familiaris [6] = test: Pressor activity in Canis lupus familiaris (dog) assessed as increase in mean arterial blood pressure at 100 nmol/kg, iv; format: ADME, organism-based; details: in vivo
Canis familiaris [7] = test: Pressor activity in Canis lupus familiaris (dog) assessed as increase in mean arterial blood pressure at 100 nmol/kg, iv in presence of idazoxan; format: ADME, organism-based; details: in vivo
[8] = molecular target: T3, Alpha-1B adrenergic receptor; test: Antagonist activity at alpha1B adrenoreceptor in Rattus norvegicus (rat) spleen assessed as inhibition of phenylephrine-indued contraction; details: read-out: pA2 (converted)
Canis familiaris [9] = test: Pressor activity in Canis lupus familiaris (dog) assessed as increase in mean arterial blood pressure at 100 nmol/kg, iv in presence of prazosin; format: ADME, organism-based; details: in vivo
[10] = molecular target: T1, Alpha-1B adrenergic receptor (Rattus norvegicus); test: Agonist activity at alpha1B adrenoreceptor in Rattus norvegicus (rat) spleen relative to phenylephrine
[11] = molecular target: T6, Alpha-1D adrenergic receptor (Rattus norvegicus, UniProt P23944); test: Antagonist activity at alpha1D adrenoreceptor in Rattus norvegicus (rat) aorta assessed as inhibition of phenylephrine-indued contraction; details: read-out: pA2 (converted)
T6 sequence (P23944 whole entry): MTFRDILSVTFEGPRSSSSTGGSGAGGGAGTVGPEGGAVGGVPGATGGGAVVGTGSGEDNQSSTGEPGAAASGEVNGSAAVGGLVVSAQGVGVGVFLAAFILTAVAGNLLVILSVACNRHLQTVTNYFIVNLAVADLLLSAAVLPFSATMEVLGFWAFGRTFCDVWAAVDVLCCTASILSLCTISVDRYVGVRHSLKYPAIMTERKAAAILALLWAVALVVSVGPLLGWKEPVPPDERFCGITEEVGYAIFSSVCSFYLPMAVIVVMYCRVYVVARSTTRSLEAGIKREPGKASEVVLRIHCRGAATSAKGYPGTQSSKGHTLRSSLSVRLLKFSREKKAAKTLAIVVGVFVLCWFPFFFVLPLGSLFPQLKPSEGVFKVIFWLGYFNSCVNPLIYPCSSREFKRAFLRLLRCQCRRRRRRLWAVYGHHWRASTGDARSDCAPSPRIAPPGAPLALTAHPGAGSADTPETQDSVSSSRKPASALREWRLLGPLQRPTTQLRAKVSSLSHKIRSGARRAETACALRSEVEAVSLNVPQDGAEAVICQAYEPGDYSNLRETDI

[12] = molecular target: T2, Alpha-1A adrenergic receptor (Oryctolagus cuniculus); test: Agonist activity at alpha1A adrenoreceptor in Oryctolagus cuniculus (rabbit) urethra relative to phenylephrine
[13] = molecular target: T7, Alpha-1D adrenergic receptor (Rattus norvegicus) (UniProt P23944); test: Agonist activity at alpha1D adrenoreceptor in Rattus norvegicus (rat) aorta relative to phenylephrine
T7 sequence (whole entry): T6 sequence (P23944 whole entry)

[14] = molecular target: T8, Alpha-1B adrenergic receptor (Mesocricetus auratus, UniProt P18841); test: Binding affinity to Cricetinae (hamster) alpha1B adrenoreceptor by radioligand displacement assay
T8 sequence (P18841 whole entry): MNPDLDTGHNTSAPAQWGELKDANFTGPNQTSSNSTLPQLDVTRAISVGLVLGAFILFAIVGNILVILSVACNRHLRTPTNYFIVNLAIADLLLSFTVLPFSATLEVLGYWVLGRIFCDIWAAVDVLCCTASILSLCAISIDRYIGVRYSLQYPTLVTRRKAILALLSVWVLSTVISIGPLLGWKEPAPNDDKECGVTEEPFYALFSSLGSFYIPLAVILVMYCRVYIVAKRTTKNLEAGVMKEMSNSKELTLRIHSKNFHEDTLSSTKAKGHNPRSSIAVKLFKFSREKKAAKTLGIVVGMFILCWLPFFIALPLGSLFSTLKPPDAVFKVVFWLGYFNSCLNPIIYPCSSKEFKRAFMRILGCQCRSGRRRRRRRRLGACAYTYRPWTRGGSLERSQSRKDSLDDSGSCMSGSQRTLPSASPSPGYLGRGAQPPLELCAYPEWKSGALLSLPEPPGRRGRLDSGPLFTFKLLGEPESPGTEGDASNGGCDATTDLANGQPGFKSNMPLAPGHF

[15] = molecular target: T6, Alpha-1D adrenergic receptor; test: Binding affinity to Rattus norvegicus (rat) alpha1D adrenoreceptor by radioligand displacement assay
Canis familiaris [16] = test: Selectivity index, ratio of ED20 for change in mean arterial pressure to ED5 for effect on intraurethral pressure in iv dosed Canis lupus familiaris (dog); set-up: species or system Artery
[17] = molecular target: T6, Alpha-1D adrenergic receptor; test: Agonist activity at alpha1D adrenoreceptor in Rattus norvegicus (rat) aorta

| Compound | pEC50 [1] | Ki [5] [µM] | Ki [14] [µM] | Ki [15] [µM] | also measured |
| --- | --- | --- | --- | --- | --- |
| COC(=O)Nc1cccc2c1CCCC2c1c[nH]cn1 (stereo unspecified) | inactive |  |  |  | pEC50 [2]: inactive |
| Nc1cccc2c1CCCC2c1c[nH]cn1 (stereo unspecified) |  | 0.126 |  |  | EC50 [3]: 0.977 µM; EC50 [4]: 0.275 µM |
| CCS(=O)(=O)Nc1cccc(Cc2c[nH]cn2)c1 |  |  |  |  | Activity (Canis familiaris [6]): Toxic; Activity (Canis familiaris [7]): Toxic; Kb [8]: 4.07 µM; Activity (Canis familiaris [9]): Non-toxic; Efficacy [10]: 11%; Kb [11]: 0.661 µM |
| CS(=O)(=O)Nc1cccc2c1CCCCC2c1c[nH]cn1 (stereo unspecified) | inactive |  |  |  |  |
| CS(=O)(=O)Nc1c(O)ccc2c1CCCC2C1=NCCN1 (stereo unspecified) |  |  |  |  | Efficacy [12]: 88%; Efficacy [13]: 99% |
| CCCS(=O)(=O)Nc1cccc2c1CCCC2c1c[nH]cn1 (stereo unspecified) | inactive |  | > 10 | > 10 | pEC50 [2]: inactive |
| CC(C)S(=O)(=O)Nc1cccc2c1CCCC2c1c[nH]cn1 (stereo unspecified) |  |  | > 10 |  | EC50 [3]: 14.1 µM; EC50 [4]: 6.76 µM; Efficacy [10]: 8% |
| CCS(=O)(=O)Nc1cccc2c1CCCC2c1c[nH]cn1 (stereo unspecified) | inactive |  |  |  |  |
| CN(c1c(O)ccc2c1CCCC2C1=NCCN1)S(C)(=O)=O (stereo unspecified) |  | 5.5 | 15.8 | 18.2 |  |
| O=S(=O)(Nc1cccc2c1CCCC2c1c[nH]cn1)C1CC1 (stereo unspecified) | inactive |  | > 10 |  | EC50 [4]: 5.62 µM |
| COc1ccc(OC)c(C(O)CN)c1 (stereo unspecified) [DESGLYMIDODRINE] |  |  |  |  | Selectivity Index (Canis familiaris [16]): 1.3; EC50 [4]: 7.08 µM; EC50 [17]: 1.86 µM |
| COc1ccc2c(c1NS(C)(=O)=O)CCCC2C1=NCCN1 (stereo unspecified) |  | 0.617 | 3.47 | 1.55 |  |
| CC(N)C(O)c1ccccc1 (stereo unspecified) [PHENYLPROPANOLAMINE] |  |  |  |  | EC50 [3]: 282 µM; Selectivity Index (Canis familiaris [16]): 0.4; EC50 [4]: 234 µM; EC50 [17]: 75.9 µM |
| CCCS(=O)(=O)Nc1c(O)ccc2c1CCCC2C1=NCCN1 (stereo unspecified) |  | 0.776 | 3.09 | 1.86 |  |
| CCS(=O)(=O)Nc1c(O)ccc2c1CCCC2C1=NCCN1 (stereo unspecified) |  | 0.0603 | 4.27 | 2.19 |  |
| COC(=O)Nc1c(O)ccc2c1CCCC2C1=NCCN1 (stereo unspecified) |  | 0.288 | 10 | 8.51 |  |
| O=S(=O)(Nc1c(O)ccc2c1CCCC2C1=NCCN1)c1ccccc1 (stereo unspecified) |  | > 3.16 | > 3.16 | > 3.16 |  |
| NC(=O)Nc1c(O)ccc2c1CCCC2C1=NCCN1 (stereo unspecified) |  | 7.08 | 10 | 5.5 |  |
| Cn1cnc(C2CCCc3c(NS(C)(=O)=O)cccc32)c1 (stereo unspecified) |  |  | 1.05 | 3.63 |  |
| CCS(=O)(=O)Nc1cccc(Cc2c[nH]cn2)c1C |  |  |  |  | Kb [8]: 15.1 µM; Kb [11]: 5.89 µM |
| CCS(=O)(=O)Nc1cccc2c1CCCC2c1c[nH]c(C)n1 (stereo unspecified) | inactive |  | > 10 | > 10 | pEC50 [2]: inactive |
| O=S(=O)(CC(F)(F)F)Nc1cccc2c1CCCC2c1c[nH]cn1 (stereo unspecified) | inactive |  | > 10 | > 10 | Kb [8]: 42.7 µM; Efficacy [12]: 64%; Kb [11]: 27.5 µM |
| CCS(=O)(=O)Nc1cccc2c1CCC[C@H]2c1c[nH]cn1 |  | 0.0468 | 1.32 | 1.07 | Kb [8]: 13.8 µM; Efficacy [12]: 71%; EC50 [3]: 3.8 µM; Selectivity Index (Canis familiaris [16]): 3.3; EC50 [4]: 0.17 µM; Efficacy [10]: 11%; Kb [11]: 7.24 µM |
| O=S(=O)(Nc1c(O)ccc2c1CCCC2C1=NCCN1)C(F)(F)F (stereo unspecified) |  | > 3.16 | > 3.16 | > 3.16 |  |
| Cn1cncc1C1CCCc2c(NS(C)(=O)=O)cccc21 (stereo unspecified) | inactive | > 10 | > 10 | > 10 | pEC50 [2]: inactive |
